Reference: patent US20070128217A1 (priority 2003, published 2007)

Legend:
[1] = system: control sera (pooled serum of ten healthy LUMC hospital workers; commercial negative donor pooled serum from the Dutch bloodbank); type: binding, human; design: Binding of Control serum LUMC to linear peptides / Binding of Control serum Blood-bank to linear peptides / Binding of Control serum LUMC to looped peptides / Binding of Control Serum Blood-Bank to Looped peptides / Binding of Control serum LUMC to linear peptides of the protein M of SARS-CoV Urbani / Binding of Control serum Blood-bank to linear peptides of the protein M of SARS-CoV Urbani / Binding of Control serum LUMC to looped peptides of the protein M of SARS-CoV Urbani / Binding of Control Serum Blood-Bank to Looped peptides of the protein M of SARS-CoV Urbani: unit not given here
[2] = system: rabbit serum obtained by immunizing a rabbit with the SARS-CoV strain Frankfurt 1; type: binding; design: Binding of a rabbit serum to linear peptides / Binding of a rabbit serum to looped peptides / Rabbit serum linear peptides / Rabbit serum looped peptides / Binding of a rabbit serum to linear peptides of protein N of SARS-CoV Urbani (Rabbit serum linear peptides) / Binding of a rabbit serum to looped/cyclic peptides of protein N of SARS-CoV Urbani (Rabbit serum looped peptides): unit not given here
[3] = system: antibodies in sera from SARS patients (sera 1a, 1b, 2, 6, 37, 62, London, SARS-yellow, SARS-green); type: binding, human; design: Binding of serum 6 to linear peptides of protein X1 of SARS-CoV Urbani / Binding of serum 37 to linear peptides of protein X1 of SARS-CoV Urbani / Binding of serum 6 to looped/cyclic peptide (PEPSCAN-ELISA) / Binding of serum 37 to looped/cyclic peptide (PEPSCAN-ELISA) / Binding of serum 37 to looped/cyclic peptides of protein X1 of SARS-CoV Urbani / Binding of serum 6 to linear peptides of protein X2 / Binding of serum 37 to linear peptides of protein X2 / Binding of serum 37 to looped/cyclic peptides of protein X2 of SARS-CoV Urbani / Binding of serum 6 to linear peptides of protein M of SARS-CoV Urbani / Binding of serum 37 to linear peptides of protein M of SARS-CoV Urbani / Binding of serum 6 to looped/cyclic peptides of protein M of SARS-CoV Urbani / Binding of serum 37 to looped/cyclic peptides of protein M of SARS-CoV Urbani / Binding of serum 6 to linear peptides of protein X3 of SARS-CoV Urbani / Binding of serum 37 to linear peptides of protein X3 of SARS-CoV Urbani / Binding of serum 37 to looped/cyclic peptides of protein X3 of SARS-CoV Urbani / Binding of serum 6 to linear peptides of protein X4 of SARS-CoV Urbani / Binding of serum 37 to linear peptides of protein X4 of SARS-CoV Urbani / Binding of serum 37 to looped/cyclic peptides of protein X4 of SARS-CoV Urbani / Binding of serum 6 to linear peptides of protein X5 of SARS-CoV Urbani / Binding of serum 37 to linear peptides of protein X5 of SARS-CoV Urbani / Binding of serum 37 to looped/cyclic peptides of protein X5 of SARS-CoV Urbani / Binding of serum 6 to linear peptides of protein N of SARS-CoV Urbani / Binding of serum 37 to linear peptides of protein N of SARS-CoV Urbani / Binding of serum 6 to linear peptide (PEPSCAN-ELISA) / Binding of serum 1a to looped/cyclic peptides of protein N of SARS-CoV Urbani / Binding of serum 1b to looped/cyclic peptides of protein N of SARS-CoV Urbani / Binding of serum 2 to looped/cyclic peptides of protein N of SARS-CoV Urbani / Binding of serum 6 to looped/cyclic peptides of protein N of SARS-CoV Urbani / Binding of serum 37 to looped/cyclic peptides of protein N of SARS-CoV Urbani / Binding of serum 62 to looped/cyclic peptides of protein N of SARS-CoV Urbani / Binding of serum London to looped/cyclic peptides of protein N of SARS-CoV Urbani / Binding of serum SARS-green to looped/cyclic peptides of protein N of SARS-CoV Urbani: unit not given here

LPKEITVATSRTLSY
Binding of Control Serum Blood-Bank to Looped peptides of the protein M of SARS-CoV Urbani [1]: 0.6 | Binding of Control serum Blood-bank to linear peptides of the protein M of SARS-CoV Urbani [1]: 0.8 | Binding of Control serum LUMC to linear peptides of the protein M of SARS-CoV Urbani [1]: 0.7 | Binding of Control serum LUMC to looped peptides of the protein M of SARS-CoV Urbani [1]: 0.6 | Rabbit serum linear peptides [2]: 0.2 | Rabbit serum looped peptides [2]: 0.2 | Binding of serum 1a to linear peptides of protein M of SARS-CoV Urbani [3]: 0.7 | Binding of serum 1a to looped/cyclic peptides of protein M of SARS-CoV Urbani [3]: 0.6 | Binding of serum 1b to linear peptides of protein M of SARS-CoV Urbani [3]: 0.5 | Binding of serum 1b to looped/cyclic peptides of protein M of SARS-CoV Urbani [3]: 0.4 | Binding of serum 2 to linear peptides of protein M of SARS-CoV Urbani [3]: 0.6 | Binding of serum 2 to looped/cyclic peptides of protein M of SARS-CoV Urbani [3]: 0.6 | Binding of serum 6 to linear peptides of protein M of SARS-CoV Urbani [3]: 0.4 | Binding of serum 6 to looped/cyclic peptides of protein M of SARS-CoV Urbani [3]: 0.6 | Binding of serum 37 to linear peptides of protein M of SARS-CoV Urbani [3]: 0.4 | Binding of serum 37 to looped/cyclic peptides of protein M of SARS-CoV Urbani [3]: 0.6 | Binding of serum 62 to linear peptides of protein M of SARS-CoV Urbani [3]: 0.5 | Binding of serum 62 to looped/cyclic peptides of protein M of SARS-CoV Urbani [3]: 0.5 | Binding of serum London to linear peptides of protein M of SARS-CoV Urbani [3]: 0.3 | Binding of serum London to looped/cyclic peptides of protein M of SARS-CoV Urbani [3]: 0.2 | Binding of serum SARS-green to linear peptides of protein M of SARS-CoV Urbani [3]: 0.4 | Binding of serum SARS-green to looped/cyclic peptides of protein M of SARS-CoV Urbani [3]: 0.3 | Binding of serum SARS-yellow to linear peptides of protein M of SARS-CoV Urbani [3]: 0.2 | Binding of serum SARS-yellow to looped/cyclic peptides of protein M of SARS-CoV Urbani [3]: 0.5

LQASLPFGWLVIGVA
Binding of Control Serum Blood-Bank to Looped peptides [1]: 0.6 | Binding of Control serum Blood-bank to linear peptides [1]: 0.8 | Binding of Control serum LUMC to linear peptides [1]: 0.5 | Binding of Control serum LUMC to looped peptides [1]: 0.5 | Binding of a rabbit serum to linear peptides [2]: 0.5 | Binding of a rabbit serum to looped peptides [2]: 0.4 | Binding of serum 1a to linear peptides of protein X1 of SARS-CoV Urbani [3]: 0.7 | Binding of serum 1a to looped/cyclic peptide (PEPSCAN-ELISA) [3]: 0.4 | Binding of serum 1b to linear peptides of protein X1 of SARS-CoV Urbani [3]: 0.6 | Binding of serum 1b to looped/cyclic peptide (PEPSCAN-ELISA) [3]: 0.3 | Binding of serum 2 to linear peptides of protein X1 of SARS-CoV Urbani [3]: 0.6 | Binding of serum 2 to looped/cyclic peptide (PEPSCAN-ELISA) [3]: 0.3 | Binding of serum 6 to linear peptides of protein X1 of SARS-CoV Urbani [3]: 0.4 | Binding of serum 6 to looped/cyclic peptide (PEPSCAN-ELISA) [3]: 0.3 | Binding of serum 37 to linear peptides of protein X1 of SARS-CoV Urbani [3]: 0.7 | Binding of serum 37 to looped/cyclic peptide (PEPSCAN-ELISA) [3]: 0.4 | Binding of serum 62 to linear peptides of protein X1 of SARS-CoV Urbani [3]: 0.7 | Binding of serum 62 to looped/cyclic peptide (PEPSCAN-ELISA) [3]: 0.5 | Binding of serum London to linear peptides of protein X1 of SARS-CoV Urbani [3]: 0.2 | Binding of serum London to looped/cyclic peptide (PEPSCAN-ELISA) [3]: 0.2 | Binding of serum SARS-green to linear peptides of protein X1 of SARS-CoV Urbani [3]: 0.3 | Binding of serum SARS-green to looped/cyclic peptide (PEPSCAN-ELISA) [3]: 0.2 | Binding of serum SARS-yellow to linear peptides of protein X1 of SARS-CoV Urbani [3]: 0.6 | Binding of serum SARS-yellow to looped/cyclic peptide (PEPSCAN-ELISA) [3]: 0.4

LQCINACRIIMRCWL
Binding of Control Serum Blood-Bank to Looped peptides [1]: 0.7 | Binding of Control serum Blood-bank to linear peptides [1]: 0.9 | Binding of Control serum LUMC to linear peptides [1]: 0.7 | Binding of Control serum LUMC to looped peptides [1]: 0.6 | Recognition of the peptide by the rabbit serum [2]: recognized | Binding of serum 1a to linear peptides of protein X1 of SARS-CoV Urbani [3]: 0.7 | Binding of serum 1a to looped/cyclic peptide (PEPSCAN-ELISA) [3]: 0.5 | Binding of serum 1b to linear peptides of protein X1 of SARS-CoV Urbani [3]: 0.5 | Binding of serum 1b to looped/cyclic peptide (PEPSCAN-ELISA) [3]: 0.3 | Binding of serum 2 to linear peptides of protein X1 of SARS-CoV Urbani [3]: 0.5 | Binding of serum 2 to looped/cyclic peptide (PEPSCAN-ELISA) [3]: 0.6 | Binding of serum 6 to linear peptides of protein X1 of SARS-CoV Urbani [3]: 0.6 | Binding of serum 6 to looped/cyclic peptide (PEPSCAN-ELISA) [3]: 1.4 | Binding of serum 37 to linear peptides of protein X1 of SARS-CoV Urbani [3]: 0.7 | Binding of serum 37 to looped/cyclic peptide (PEPSCAN-ELISA) [3]: 0.6 | Binding of serum 62 to linear peptides of protein X1 of SARS-CoV Urbani [3]: 0.6 | Binding of serum 62 to looped/cyclic peptide (PEPSCAN-ELISA) [3]: 0.9 | Binding of serum London to linear peptides of protein X1 of SARS-CoV Urbani [3]: 0.3 | Binding of serum London to looped/cyclic peptide (PEPSCAN-ELISA) [3]: 1.7 | Binding of serum SARS-green to linear peptides of protein X1 of SARS-CoV Urbani [3]: 0.1 | Binding of serum SARS-green to looped/cyclic peptide (PEPSCAN-ELISA) [3]: 0.2 | Binding of serum SARS-yellow to linear peptides of protein X1 of SARS-CoV Urbani [3]: 0.3 | Binding of serum SARS-yellow to looped/cyclic peptide (PEPSCAN-ELISA) [3]: 0.4

LQFAYSNRNRFLYII
Binding of Control Serum Blood-Bank to Looped peptides of the protein M of SARS-CoV Urbani [1]: 0.6 | Binding of Control serum Blood-bank to linear peptides of the protein M of SARS-CoV Urbani [1]: 0.6 | Binding of Control serum LUMC to linear peptides of the protein M of SARS-CoV Urbani [1]: 0.4 | Binding of Control serum LUMC to looped peptides of the protein M of SARS-CoV Urbani [1]: 0.6 | Rabbit serum linear peptides [2]: 0.6 | Rabbit serum looped peptides [2]: 0.4 | Binding of serum 1a to linear peptides of protein M of SARS-CoV Urbani [3]: 0.7 | Binding of serum 1a to looped/cyclic peptides of protein M of SARS-CoV Urbani [3]: 0.7 | Binding of serum 1b to linear peptides of protein M of SARS-CoV Urbani [3]: 0.5 | Binding of serum 1b to looped/cyclic peptides of protein M of SARS-CoV Urbani [3]: 0.5 | Binding of serum 2 to linear peptides of protein M of SARS-CoV Urbani [3]: 0.6 | Binding of serum 2 to looped/cyclic peptides of protein M of SARS-CoV Urbani [3]: 0.5 | Binding of serum 6 to linear peptides of protein M of SARS-CoV Urbani [3]: 0.3 | Binding of serum 6 to looped/cyclic peptides of protein M of SARS-CoV Urbani [3]: 0.7 | Binding of serum 37 to linear peptides of protein M of SARS-CoV Urbani [3]: 0.7 | Binding of serum 37 to looped/cyclic peptides of protein M of SARS-CoV Urbani [3]: 0.6 | Binding of serum 62 to linear peptides of protein M of SARS-CoV Urbani [3]: 0.7 | Binding of serum 62 to looped/cyclic peptides of protein M of SARS-CoV Urbani [3]: 0.6 | Binding of serum London to linear peptides of protein M of SARS-CoV Urbani [3]: 0.2 | Binding of serum London to looped/cyclic peptides of protein M of SARS-CoV Urbani [3]: 0.2 | Binding of serum SARS-green to linear peptides of protein M of SARS-CoV Urbani [3]: 0.2 | Binding of serum SARS-green to looped/cyclic peptides of protein M of SARS-CoV Urbani [3]: 0.4 | Binding of serum SARS-yellow to linear peptides of protein M of SARS-CoV Urbani [3]: 0.0 | Binding of serum SARS-yellow to looped/cyclic peptides of protein M of SARS-CoV Urbani [3]: 0.5
